Columns and labels:
HEK293 cells [1] = experiment: MTT test of cellular metabolism under hydrogen peroxide oxidative stress; assay type: cell-based, Human; conditions: HEK293, 300 μM hydrogen peroxide; 40 μM myoinositol + 100 μM D-chiro inositol and/or 10 μM resveratrol
Experimental: (§1) The measures have been performed in triplicate. Left (MTT) and (cell count). Human embryonic kidney HEK293 cells were grown in adherence in a growth medium consisting of DMEM supplemented with 10% fetal bovine serum (FBS) for 24 hours before being treated with 300 μM hydrogen peroxide in the presence of inositols (MI-D-chirol, 40 μM myoinositol and 100 μM D-chiro inositol, molar ratio MI/D-ChiroI=0.4) or resveratrol (10 μM) or in a combination of inositol and resveratrol. The effects of treatments on cellular metabolism were evaluated by the MTT test, while on the proliferation by cell count in Burker's chamber and all effects were compared with growing cells under controlled conditions (DMEN+10% FBS). The inositol concentrations were chosen based on the myo-inositol (MI) plasma concentration (26), and considering the molar ratio MI/D-Chirol=0.4 according to the invention, while the resveratrol concentration (10 μM) was chosen considering the plasma concentration expected after a treatment regime with resveratrol supported on hydroxide such as that from […]. […] Oxidative stress aggravates the pathological state of PCOS along with hormonal imbalance (27).

HEK293 cells [2] = experiment: Cell count in Burker's chamber (proliferation) under hydrogen peroxide oxidative stress; assay type: cell-based, Human; conditions: HEK293, 300 μM hydrogen peroxide; 40 μM myoinositol + 100 μM D-chiro inositol and/or 10 μM resveratrol
Experimental: as §1

Structure (SMILES): Oc1ccc(C=Cc2cc(O)cc(O)c2)cc1 [resveratrol]
- effect on the anti-proliferative effect of oxidative stress, metabolic activity (MTT) (HEK293 cells [1]): only partially counteracted
- effect on the anti-proliferative effect of oxidative stress, cell number (cell count) (HEK293 cells [2]): only partially counteracted

— patent publication US11246834B2, “Nutraceutical or pharmaceutical composition for use in the treatment of polycystic ovary syndrome or of diseases or disorders related thereto” (S&R FARMACEUTICI S.P.A., priority 2016, dated 2022)
